Reference: patent US12595243B2, “Modulators of extracellular signal-regulated kinase” (GEN1E LIFESCIENCES INC., priority 2023, dated 2026)
Read-outs that look alike come from different tables or passages of the source.

Legend:
[1] = tested on: melanoma cell line RPMI-7951; test: Cytotoxicity in cancer cell lines (CellTiter-Glo), RPMI-7951; assay type: cell-based; conditions: Homo sapiens
From the text: (§1) All cells were obtained from ATCC. […] Normocin® was obtained from InvivoGen. FBS was obtained from Gibco. […] All test compounds were synthesized as described herein.

[2] = tested on: melanoma cell line Sk-Mel-28; test: Cytotoxicity in cancer cell lines (CellTiter-Glo), Sk-Mel-28; assay type: cell-based
From the text: as §1

[3] = tested on: glioblastoma cell line U87; test: Cytotoxicity in cancer cell lines (CellTiter-Glo), U87; assay type: cell-based
From the text: as §1

[4] = tested on: immortalized human T lymphocyte Jurkat cells; test: Cytotoxicity in cancer cell lines (CellTiter-Glo), Jurkat; assay type: cell-based
From the text: as §1

melanoma cell line A375 = test: Cytotoxicity in cancer cell lines (CellTiter-Glo), A375; conditions: Homo sapiens, A375 cells, mean of three tests
Procedure: (§2) The cytotoxicity of test compounds was determined for several cell lines including melanoma cell line RPMI-7951, melanoma cell line Sk-Mel-28, melanoma cell line A375, melanoma cell line U87, glioblastoma cell line U87, immortalized human T lymphocyte Jurkat cells, and human pancreatic carcinoma cell line PL-45.
(§3) All cells were obtained from ATCC. RPMI, DMEM, EMEM and pen/strep were obtained from Invitrogen. Normocin® was obtained from InvivoGen. FBS was obtained from Gibco. Cell viability reagent Cell-titer glow was obtained from Promega.
(§4) The growth media for A375 and PL45 cells was DMEM supplemented with antibiotic/anti-mycotic pen/strep and Normocin® (InvivoGen) and 10% FBS.
(§5) Ten (10) mM solutions of each of the test compounds were prepared in dimethyl sulfoxide (DMSO) and serially diluted in DMSO to provide solutions having concentrations of the test compound of 3 mM, 1 mM, 0.3 mM, 0.1 mM, 0.03 mM, or 0.01 mM. Forty (40) μL of each of the solutions were further diluted to 400 μL in the cell specific complete media to provide 10× stock solutions having a 1 mM, 300 μM, 100 μM, 30 μM, 10 μM, 3 μM, 1 μM, or 0.3 μM of the test compound. Ten (10) μL of DMSO was diluted to 400 μL in the complete media and used as the 0 μM control.
(§6) For the cytotoxicity studies, all cells were grown in their respective complete media. Confluent cells were harvested and plated into two 96-well tissue culture treated plates at 5,000-8,000 cells/wells in 180 μL media. Twenty (20) μL of each of the 10× stock solutions were added to the wells and mixed.
(§7) After incubating for 24 h, media was aspirated out and replaced with 180 μL/well of the fresh media and 20 μL/well of the 10× stock solutions in duplicate wells in duplicate plates (Plates 1 and 2; and 3 and 4) and in quadruplicate wells (Plate 5) were added, mixed and cultured for 48 hours. The final concentrations of each test compound were 100 μM, 30 μM, 10 μM, 3 μM, 1 μM, 0.3 μM, 0.1 μM and 0 μM.
(§8) After 48 hours and/or 72 hours following addition of the test compounds, one plate each was removed from the incubator, the media aspirated out, 100 μL of CellTiter-Glo® reagent added to each well, and the resulting luminescent signals measured using a VICTOR-2® plate reader.
(§9) The data from the plate reader were exported to GraphPad (Prism) and data processed using non-linear regression and EC50 value determined.

[5] = tested on: human pancreatic carcinoma cell line PL-45; test: Cytotoxicity in cancer cell lines (CellTiter-Glo), PL-45; conditions: PL45, 48 h, read-out: Cytotoxicity EC50 at 48 hours, PL-45
Procedure: as §2, §3, §4, §5, §6, §7, §8, §9

[6] = RPMI-7951, 48 h, read-out: Cytotoxicity EC50 at 48 hours, RPMI
[7] = RPMI-7951, 72 h, read-out: Cytotoxicity EC50 at 72 hours, RPMI
[8] = Homo sapiens, SK-MEL-28, 48 h, read-out: Cytotoxicity EC50 at 48 hours, Sk mel
[9] = Homo sapiens, SK-MEL-28, 72 h, read-out: Cytotoxicity EC50 at 72 hours, Sk mel
[10] = 48 h, Jurkat cells, mean of three tests, read-out: Cytotoxicity EC50 at 48 hours, Jurkat
[11] = 72 h, Jurkat cells, mean of three tests, read-out: Cytotoxicity EC50 at 72 hours, Jurkat
[12] = A-375, 48 h, read-out: Cytotoxicity EC50 at 48 hours, A375, 48 h
[13] = A-375, 72 h, read-out: Cytotoxicity EC50 at 72 hours, A375, 72 h
[14] = Homo sapiens, SK-MEL-28, 48 h, 48 h, Sk-Mel-28 cells, mean of three tests, read-out: Cytotoxicity EC50 at 48 hours, Sk mel
[15] = Homo sapiens, SK-MEL-28, 72 h, 72 h, Sk-Mel-28 cells, mean of three tests, read-out: Cytotoxicity EC50 at 72 hours, Sk mel
[16] = Homo sapiens, U-87 MG, 48 h; U87 cells; mean of three tests; read-out: Cytotoxicity EC50 at 48 hours, U87
[17] = Homo sapiens, U-87 MG, 72 h; U87 cells; mean of three tests; read-out: Cytotoxicity EC50 at 72 hours, U87
[18] = Homo sapiens, U-87 MG, 48 h, read-out: Cytotoxicity EC50 at 48 hours, U87
[19] = Homo sapiens, U-87 MG, 72 h, read-out: Cytotoxicity EC50 at 72 hours, U87
[20] = Jurkat, 48 h, read-out: Cytotoxicity EC50 at 48 hours, Jurkat
[21] = Jurkat, 72 h, read-out: Cytotoxicity EC50 at 72 hours, Jurkat

| SMILES | EC50 [1, 6] [µM] | EC50 [1, 7] [µM] | EC50 [4, 10] [µM] | EC50 (melanoma cell line A375; [12]) [µM] | EC50 (melanoma cell line A375; [13]) [µM] | EC50 [2, 14] [µM] | EC50 [3, 16] [µM] | other results |
| --- | --- | --- | --- | --- | --- | --- | --- | --- |
| O=C(COC1C=CS(=O)(=O)C1)c1ccc2ccccc2c1 (centres unmarked) [(8), 2-((1,1-dioxido-2,3-dihydrothiophen-3-yl)oxy)-1-(naphthalen-2-yl)ethan-1-one] | 20 | 16 | 0.5 | 11 | 46 |  |  | EC50 [2, 8]: > 100 µM; EC50 [2, 9]: 77 µM; EC50 ([3]; Homo sapiens, U-87 MG; 48 h; U87 cells; mean of three tests; read-out: Cytotoxicity EC50 at 48 hours, U87): > 100 µM; EC50 ([3]; Homo sapiens, U-87 MG; 72 h; U87 cells; mean of three tests; read-out: Cytotoxicity EC50 at 72 hours, U87): 37 µM; EC50 [4, 11]: 0.5 µM |
| O=S1(=O)C=CC(OS(=O)(=O)c2ccc(S(=O)(=O)c3ccccc3)cc2)C1 (centres unmarked) [(45), 1,1-dioxido-2,3-dihydrothiophen-3-yl 4-(phenylsulfonyl)benzenesulfonate] |  |  |  | 25 |  |  |  | EC50 [5]: 2.4 µM |
| O=S1(=O)C=CC(OCc2ccc(Oc3ccccc3)cc2)C1 (centres unmarked) [(6), 3-((4-phenoxybenzyl)oxy)-2,3-dihydrothiophene 1,1-dioxide] | 40 | 24 | > 100 | 24 | 19 | 69 | > 100 | EC50 [2, 15]: 48 µM; EC50 [3, 17]: 46 µM; EC50 [4, 11]: > 100 µM |
| O=C(Nc1ccc2ccccc2c1)OC1C=CS(=O)(=O)C1 (centres unmarked) [(10), 1,1-dioxido-2,3-dihydrothiophen-3-yl naphthalen-2-ylcarbamate] | 39 | 28 |  | 31 | 46 |  |  | EC50 [2, 8]: 38 µM; EC50 [2, 9]: 25 µM; EC50 [3, 18]: > 100 µM; EC50 [3, 19]: 31 µM; EC50 [4, 20]: > 100 µM; EC50 [4, 21]: 8 µM |
| COc1cc(Oc2ccccc2)ccc1S(=O)(=O)OC1C=CS(=O)(=O)C1 (centres unmarked) [(41), 1,1-dioxido-2,3-dihydrothiophen-3-yl 2-methoxy-4-phenoxybenzenesulfonate] |  |  |  | 0.6 |  |  |  | EC50 [5]: 0.5 µM |
| O=S1(=O)C=CC(OCCc2ccc3ccccc3c2)C1 (centres unmarked) [(7), 3-(2-(naphthalen-2-yl)ethoxy)-2,3-dihydrothiophene 1,1-dioxide] | 19 |  | 10 | 29 |  | 95 |  |  |
| O=C(Nc1ccc(-c2ccccc2)cc1)NC1C=CS(=O)(=O)C1 (centres unmarked) [(13), 1-([1,1′-biphenyl]-4-yl)-3-(1,1-dioxido-2,3-dihydrothiophen-3-yl)urea] | > 100 |  | 86 | > 100 |  | > 100 | 1 |  |
| O=C(OC1C=CS(=O)(=O)C1)c1ccc(Oc2ccccc2)cc1 (centres unmarked) [(23), 1,1-Dioxido-2,3-dihydrothiophen-3-yl 4-phenoxybenzoate] |  |  |  | 23 |  |  |  | EC50 [5]: 8.3 µM |
| O=S1(=O)C=CC(OS(=O)(=O)c2cccc(Oc3ccccc3)c2)C1 (centres unmarked) [(25), 1,1-dioxido-2,3-dihydrothiophen-3-yl 3-phenoxybenzenesulfonate] |  |  |  | 6 |  |  |  | EC50 [5]: 0.9 µM |
| CN(C1C=CS(=O)(=O)C1)S(=O)(=O)c1ccc2ccccc2c1 (centres unmarked) [(2), N-(1,1-dioxido-2,3-dihydrothiophen-3-yl)-N-methylnaphthalene-2-sulfonamide] | 85 |  | 53 | > 100 |  | > 100 | > 100 |  |
| O=S1(=O)C=CC(OS(=O)(=O)c2ccc(Cc3ccccc3)cc2)C1 (centres unmarked) [(28), 1,1-dioxido-2,3-dihydrothiophen-3-yl 4-benzylbenzenesulfonate] |  |  |  | 14 |  |  |  | EC50 [5]: 0.9 µM |
| O=C(NC1C=CS(=O)(=O)C1)c1ccc2ccccc2c1 (centres unmarked) [(14), N-(1,1-dioxido-2,3-dihydrothiophen-3-yl)-2-naphthamide] | 12 | 9.4 | 10 | 86 | 70 | > 100 | > 100 | EC50 [2, 15]: 100 µM |
| CN(C1=CCS(=O)(=O)C1)S(=O)(=O)c1ccc2ccccc2c1 [(20), N-(1,1-dioxido-2,5-dihydrothiophen-3-yl)-N-methylnaphthalene-2-sulfonamide] | > 100 |  | > 100 | > 100 |  | > 100 | > 100 |  |
| CN(C1CCS(=O)(=O)C1)S(=O)(=O)c1ccc2ccccc2c1 (centres unmarked) [(16)] | > 100 | > 100 | 9 | > 100 | 100 | > 100 | > 100 | EC50 [2, 15]: > 100 µM; EC50 [3, 17]: > 100 µM; EC50 [4, 11]: 8 µM |
| O=C(COC1C=CS(=O)(=O)C1)c1ccc(-c2ccccc2)cc1 (centres unmarked) [(9), 1-([1,1′-biphenyl]-4-yl)-2-((1,1-dioxido-2,3-dihydrothiophen-3-yl)oxy)ethan-1-one] | 11 | 10 |  | 19 | 47 |  |  | EC50 [2, 8]: 71 µM; EC50 [2, 9]: 12 µM; EC50 [3, 18]: 32 µM; EC50 [3, 19]: 28 µM; EC50 [4, 20]: 22 µM; EC50 [4, 21]: 9 µM |
| O=S1(=O)C=CC(NS(=O)(=O)c2ccc3ccccc3c2)C1 (centres unmarked) [(3), N-(1,1-dioxido-2,3-dihydrothiophen-3-yl)naphthalene-2-sulfonamide] | 19 |  | 6 | 14 |  | > 100 | 100 |  |
| CN(C1=CS(=O)(=O)CC1)S(=O)(=O)c1ccc2ccccc2c1 [(19), N-(1,1-dioxido-4,5-dihydrothiophen-3-yl)-N-methylnaphthalene-2-sulfonamide] | > 100 |  | > 100 | > 100 |  | 82 | > 100 | EC50 ([2]; 48 h, Sk-Mel-28 cells, mean of three tests, read-out: Cytotoxicity EC50 at 48 hours, Sk mel): > 100 µM |
| O=C(Cc1ccc2ccccc2c1)NC1C=CS(=O)(=O)C1 (centres unmarked) [(15), N-(1,1-dioxido-2,3-dihydrothiophen-3-yl)-2-(naphthalen-2-yl)acetamide] | 36 |  | 26 | 42 |  | 73 | 100 |  |
| CC(C)OS(=O)(=O)c1ccc2ccccc2c1 [(32), isopropyl naphthalene-2-sulfonate] |  |  |  | > 100 |  |  |  |  |
| O=S1(=O)C=CC(OCc2ccc3ccccc3c2)C1 (centres unmarked) [(4), 3-(naphthalen-2-ylmethoxy)-2,3-dihydrothiophene 1,1-dioxide] | 44 | 26 | 7 | 19 | 5 | 78 | > 100 | EC50 [2, 15]: 42 µM; EC50 [3, 17]: 53 µM; EC50 [4, 11]: 4 µM |
| O=S1(=O)C=CC(OCc2ccc(-c3ccccc3)cc2)C1 (centres unmarked) [(5), 3-([1,1′-biphenyl]-4-ylmethoxy)-2,3-dihydrothiophene 1,1-dioxide] | 72 | 86 | 6 | 80 | 75 | > 100 | > 100 | EC50 [2, 15]: > 100 µM; EC50 [3, 17]: > 100 µM; EC50 [4, 11]: 2 µM |
| CCOS(=O)(=O)c1ccc2ccccc2c1 [(31), ethyl naphthalene-2-sulfonate] |  |  |  | > 100 |  |  |  |  |
| O=C(Nc1ccc(-c2ccccc2)cc1)OC1C=CS(=O)(=O)C1 (centres unmarked) [(11), 1,1-dioxido-2,3-dihydrothiophen-3-yl [1,1′-biphenyl]-4-ylcarbamate] | 25 | 12 |  |  | 97 |  |  | EC50 [2, 8]: 66 µM; EC50 [2, 9]: 62 µM; EC50 [3, 18]: 3 µM; EC50 [4, 20]: 10 µM |
| O=C(Nc1ccc2ccccc2c1)NC1C=CS(=O)(=O)C1 (centres unmarked) [(12), 1-(1,1-dioxido-2,3-dihydrothiophen-3-yl)-3-(naphthalen-2-yl)urea] | 100 |  |  | > 100 |  |  |  | EC50 [2, 8]: > 100 µM; EC50 [3, 18]: > 100 µM; EC50 [4, 20]: > 100 µM |
